Experimental data taken from patent US20250345277A1, “Ionizable Liposome, Preparation Thereof, and Application Thereof in Gene Delivery” (MAXIRNA (ZHEJIANG) TECHNOLOGY CO. LTD., priority 2021, published 2025).

Key:
[1] = Size and polydispersity index PDI of lipid nanoparticles (Malvern Zetasizer Nano ZS); format: physicochemical; conditions: LNP ionizable lipid/DOPE/cholesterol/DSPE-PEG2000 35/16/46.5/2.5 mol% encapsulating EGFP mRNA; for Particle Size: in nm (unit assumed)
Protocol: (§1) The ionizable lipid compound of Example 1 was dissolved in ethanol with DOPE, cholesterol and DSPE-PEG2000 (all purchased from AVT (Shanghai) Pharmaceutical Technology Co., Ltd.) at a molar ratio of 35:16:46.5:2.5 to prepare ethanol lipid solution, and enhanced green fluorescent protein (EGFP) mRNAs (Shanghai Maximna Pharmaceutical Engineering Co., Ltd., JN-4201) were diluted in 20 mM citrate buffer (pH=6.1) to obtain mRNA aqueous solution. Ethanol lipid solution and mRNA aqueous solution were mixed at a volume ratio of 1:3 by using a microfluidic device (Micro&Nano (Shanghai) Instrument Technology Co., Ltd., model: INano™ML), LNPs were prepared with a weight ratio of approximately 10:1 between total lipids and mRNAs. The medium was replaced by ultrafiltration, ethanol was removed and volumed with DPBS. Finally, the lipid nanoparticles were filtered through a 0.2 μm sterile filter to obtain a LNP formulation encapsulating eGFP mRNA using ionizable lipid/DOPE/cholesterol/DSPE-PEG2000 (35/16/46.5/2.5 mol %), the concentration of mRNAs being 0.002 mg/mL-0.5 mg/mL.
Using Malvern Zetasizer Nano ZS (Malvern UK), the size and polydispersity index PDI of lipid nanoparticles were measured at […].

[2] = Entrapment efficiency of LNP preparation encapsulating EGFP mRNA; format: physicochemical; conditions: LNP ionizable lipid/DOPE/cholesterol/DSPE-PEG2000 35/16/46.5/2.5 mol% encapsulating EGFP mRNA
Protocol: as §1, with “mg/mL. […]” for “mg/mL.”

DC2.4 cells = experiment: In vitro transfection of DC2.4 cells with EGFP mRNA LNP preparation (flow cytometry); format: cell-based, mouse; conditions: DC2.4 cells; for Cell Viability / Positive Rate (EGFP): EGFP mRNA LNP, 200 ng mRNA per well, flow cytometry; for Fluorescence Intensity: EGFP mRNA expression level, normalized based on the sample with the highest fluorescence intensity
Text: The description is based on peripheral blood mononuclear cells PBMC (Shanghai Oribiotech Co., Ltd.), human peripheral blood leukemia T cell Jurkat (ATCC), tumor infiltrating lymphocyte TIL (isolated from resected tumor tissue of a liver cancer patient, the preparation method refers to CN114763530A), mouse bone marrow-derived dendritic cells DC2.4 (Cell Bank of the Chinese Academy of Sciences), and Chinese hamster ovary cells CHO (ATCC) were used as verified cell lines for liposome transfection. PBMC, Jurkat, and TIL cells grew in suspension, while DC2.4 and CHO cells grew by adherent culture. All the operation steps of cell culture must strictly abide by the prescribed procedures, and sterile reagents is used to perform aseptic operations under a sterile workbench. The main steps are as follows: • 1) Cell recovery: the preserved cell cryopreservation solution was taken out of the −80° C. refrigerator, and was immediately put in a 37° C. water bath for rapid and continuous shaking, and was completely melted within one minute. Fresh medium was added to the 15 mL centrifuge tube in advance, and the cell solution was added to the centrifuge tube in a biological safety cabinet. A centrifuge tube of the same quality was taken and placed symmetrically in a centrifuge, centrifuged at a low speed at 1200 rpm for 5 min. After centrifugation, the supernatant was removed, and an appropriate amount of medium was slowly added along the tube wall. After the cells were evenly dispersed by blowing gently, the cell suspension was pipette and added to the culture bottle prepared in advance. The state and distribution of the cells in the early stage of recovery were observed under a microscope. The culture bottle was placed in a 5% CO2 incubator and incubated at 37° C., and the recovery time was recorded. • 2) Cell subculture: Under the microscope, if the cell density in the field of view reaches 80%-90%, the cells can be subcultured. Adherent cells need to be digested with trypsin. In order to avoid the residual serum in the culture medium to reduce the activity of trypsin, DPBS solution was added to wash once after removing the original culture medium. After remove the DPBS solution, trypsin was added to degrade the protein at the junction between cells. This separates the cells for further culture. The cells were gently shaked evenly and put into the incubator for digestion for 2 min. Immediately after the digestion was completed, an appropriate amount of medium was added to the original petri dish to terminate the digestion. Finally, the cells were carefully blowed off using a pipette and blowed until they are evenly dispersed, and then inoculated and subcultured at a certain ratio according to the experimental requirements. […]
• 1) DC2.4 cells recovery: the frozen DC2.4 cells were taken out from the −80° C. refrigerator, put in a 37° C. water bath to quickly thaw the cells, added to the preheated medium after thawing, centrifuged at 1200 rpm for 5 min, the supernatant was discarded, and an appropriate amount of DMEM medium with 10% FBS was added to resuspend the recovered DC2.4, and placed in a 5% CO2 incubator at 37° C. for activation and culture. • 2) According to the experimental arrangement, DC2.4 cells were plated on a 24-well plate one day in advance for cell transfection. Through cell counting, the number of cells and cell viability were recorded, the cell suspension were taken at 2×10^5 cells per well, then a certain volume of DMEM medium containing 10% FBS was added and mixed evenly, 1 mL of mixture was added to each well for subsequent transfection experiment. • 3) After 24 hours, the medium was gently removed 30 minutes in advance by a pipette, 1 mL DPBS was added to each well for washing and then removed, then 300 μL serum-free Opti-MEM medium was added to each well for subsequent transfection experiments.
Subsequent steps are the same as the transfection protocol for PBMC cells. […]

CCCCCCCCCCC(O)CN(CCN(CCN1CCN(C)CC1)CCN(CC(O)CCCCCCCCCC)CC(O)CCCCCCCCCC)CC(O)CCCCCCCCCC (stereo not drawn) [E-C12]
PDI [1]: 0.133 | Particle Size [1]: 96.9 | Entrapment Efficiency [2]: 95.02% | Cell Viability (DC2.4 cells): 84.8% | Positive Rate (EGFP) (DC2.4 cells): 56.4% | Fluorescence Intensity (DC2.4 cells): 0.69

CCCCCCCCCCCCCCC(O)CN(CCN(CCN1CCN(C)CC1)CCN(CC(O)CCCCCCCCCCCCCC)CC(O)CCCCCCCCCCCCCC)CC(O)CCCCCCCCCCCCCC (stereo not drawn) [E-C16]
PDI [1]: 0.107 | Particle Size [1]: 76.9 | Entrapment Efficiency [2]: 91.51% | Cell Viability (DC2.4 cells): 94.4% | Positive Rate (EGFP) (DC2.4 cells): 59.9% | Fluorescence Intensity (DC2.4 cells): 0.71

CCCCCCCCCCC(O)CN(CCOCCN(CCOCCN(CC(O)CCCCCCCCCC)CC(O)CCCCCCCCCC)CCN1CCN(C)CC1)CC(O)CCCCCCCCCC (stereo not drawn) [F-C12]
PDI [1]: 0.133 | Particle Size [1]: 77.7 | Entrapment Efficiency [2]: 92.31% | Cell Viability (DC2.4 cells): 87.1% | Positive Rate (EGFP) (DC2.4 cells): 63.9% | Fluorescence Intensity (DC2.4 cells): 0.28

CCCCCCCCCCCCCCC(O)CN(CCOCCN(CCOCCN(CC(O)CCCCCCCCCCCCCC)CC(O)CCCCCCCCCCCCCC)CCN1CCN(C)CC1)CC(O)CCCCCCCCCCCCCC (stereo not drawn) [F-C16]
PDI [1]: 0.099 | Particle Size [1]: 91.9 | Entrapment Efficiency [2]: 92.39% | Cell Viability (DC2.4 cells): 96.8% | Positive Rate (EGFP) (DC2.4 cells): 60.3% | Fluorescence Intensity (DC2.4 cells): 0.17

CCCCCCCCCCCCCCCCC(O)CN(CCOCCN(CCOCCN(CC(O)CCCCCCCCCCCCCCCC)CC(O)CCCCCCCCCCCCCCCC)CCN1CCN(C)CC1)CC(O)CCCCCCCCCCCCCCCC (stereo not drawn) [F-C18]
PDI [1]: 0.081 | Particle Size [1]: 77.2 | Entrapment Efficiency [2]: 80.61% | Cell Viability (DC2.4 cells): 93.5% | Positive Rate (EGFP) (DC2.4 cells): 61.5% | Fluorescence Intensity (DC2.4 cells): 0.67

CCCCCCCCCCC(O)CN(CCOCCOCCN(CCOCCOCCN(CC(O)CCCCCCCCCC)CC(O)CCCCCCCCCC)CCN1CCN(C)CC1)CC(O)CCCCCCCCCC (stereo not drawn) [G-C12]
PDI [1]: 0.172 | Particle Size [1]: 89.3 | Entrapment Efficiency [2]: 89.95% | Cell Viability (DC2.4 cells): 92.9% | Positive Rate (EGFP) (DC2.4 cells): 83.1% | Fluorescence Intensity (DC2.4 cells): 0.29

CCCCCCCCCCCCCCC(O)CN(CCOCCOCCN(CCOCCOCCN(CC(O)CCCCCCCCCCCCCC)CC(O)CCCCCCCCCCCCCC)CCN1CCN(C)CC1)CC(O)CCCCCCCCCCCCCC (stereo not drawn) [G-C16]
PDI [1]: 0.102 | Particle Size [1]: 78.2 | Entrapment Efficiency [2]: 85.40% | Cell Viability (DC2.4 cells): 94.5% | Positive Rate (EGFP) (DC2.4 cells): 79.6% | Fluorescence Intensity (DC2.4 cells): 0.54

CCCCCCCCCCCCCCCCC(O)CN(CCOCCOCCN(CCOCCOCCN(CC(O)CCCCCCCCCCCCCCCC)CC(O)CCCCCCCCCCCCCCCC)CCN1CCN(C)CC1)CC(O)CCCCCCCCCCCCCCCC (stereo not drawn) [G-C18]
PDI [1]: 0.195 | Particle Size [1]: 99.8 | Entrapment Efficiency [2]: 80.79% | Cell Viability (DC2.4 cells): 95.2% | Positive Rate (EGFP) (DC2.4 cells): 63.9% | Fluorescence Intensity (DC2.4 cells): 0.63

CCCCCCCCCCC(O)CN(CCOCCOCCOCCN(CCOCCOCCOCCN(CC(O)CCCCCCCCCC)CC(O)CCCCCCCCCC)CCN1CCN(C)CC1)CC(O)CCCCCCCCCC (stereo not drawn) [H-C12]
PDI [1]: 0.136 | Particle Size [1]: 95.9 | Entrapment Efficiency [2]: 94.13% | Cell Viability (DC2.4 cells): 86.0% | Positive Rate (EGFP) (DC2.4 cells): 74.3% | Fluorescence Intensity (DC2.4 cells): 0.78

CCCCCCCCCCCCCCC(O)CN(CCOCCOCCOCCN(CCOCCOCCOCCN(CC(O)CCCCCCCCCCCCCC)CC(O)CCCCCCCCCCCCCC)CCN1CCN(C)CC1)CC(O)CCCCCCCCCCCCCC (stereo not drawn) [H-C16]
PDI [1]: 0.162 | Particle Size [1]: 95.5 | Entrapment Efficiency [2]: 86.56% | Cell Viability (DC2.4 cells): >99.0% | Positive Rate (EGFP) (DC2.4 cells): 59.0% | Fluorescence Intensity (DC2.4 cells): 0.77

CCCCCCCCCCCCCCCCC(O)CN(CCOCCOCCOCCN(CCOCCOCCOCCN(CC(O)CCCCCCCCCCCCCCCC)CC(O)CCCCCCCCCCCCCCCC)CCN1CCN(C)CC1)CC(O)CCCCCCCCCCCCCCCC (stereo not drawn) [H-C18]
PDI [1]: 0.143 | Particle Size [1]: 73.8 | Entrapment Efficiency [2]: 80.61% | Cell Viability (DC2.4 cells): 97.4% | Positive Rate (EGFP) (DC2.4 cells): 81.9% | Fluorescence Intensity (DC2.4 cells): 0.38

CCCCCCCCCCC(O)CN(CCN(CCN1CCN(CCO)CC1)CCN(CC(O)CCCCCCCCCC)CC(O)CCCCCCCCCC)CC(O)CCCCCCCCCC (stereo not drawn) [I-C12]
PDI [1]: 0.114 | Particle Size [1]: 83.8 | Entrapment Efficiency [2]: 88.38% | Cell Viability (DC2.4 cells): 98.5% | Positive Rate (EGFP) (DC2.4 cells): 63.9% | Fluorescence Intensity (DC2.4 cells): 0.05

CCCCCCCCCCCCC(O)CN(CCN(CCN1CCN(CCO)CC1)CCN(CC(O)CCCCCCCCCCCC)CC(O)CCCCCCCCCCCC)CC(O)CCCCCCCCCCCC (stereo not drawn) [I-C14]
PDI [1]: 0.180 | Particle Size [1]: 120.3 | Entrapment Efficiency [2]: 87.59% | Cell Viability (DC2.4 cells): 97.0% | Positive Rate (EGFP) (DC2.4 cells): 62.7% | Fluorescence Intensity (DC2.4 cells): 0.05
